What all share (type): physicochemical
The nature of series [1]: Physical stability of crystal forms at high relative humidity (one week storage). From the text:
X-ray diffraction data described herein was obtained by the powder diffraction method. X-Ray powder diffraction data were obtained using methods known in the art with a SCINTAG powder X-Ray diffractometer model X'TRA equipped with a solid state detector. Copper radiation of 1.5418 Å was used. A round aluminum sample holder with a round zero background quartz plate, with cavity of 25 mm×0.5 mm.
Thermogravimetric analysis (TGA) is a technique of thermal analysis well known in the art and measures the change in weight of a sample as a function of temperature. The technique is particularly well suited for measurement of, for example, decomposition and desolvation. TGA results reported herein were obtained using a Mettler TG50. Sample size was between about 6 and about 15 mg. Samples were analyzed at a heating rate of 10° C./min from 25° C. to 250 C. The oven was purged with nitrogen gas at a flow rate of 40 ml/min. Standard alumina crucibles covered by lids with one hole were used.
(§1) The stability of crystalline forms of risedronate sodium against transformation to form A is measured by exposing a sample to an atmosphere having a percent relative humidity (RH or %RH) of at least about 50% at a temperature greater than room temperature for a period of time. It is convenient to evaluate the stability of a crystalline form of risedronate sodium against transformation to form A by exposing a sample to an atmosphere having RH of about 75% at a temperature of 40° C. for a period of at least 3 months. The experience of the skilled artisan teaches that a pharmaceutical that is stable under these conditions will be stable for at least 2 years at room temperature.

Series [2] is described as follows: Stability test of risedronate tablets at 40° C., 75% RH (crystal form by X-Ray powder diffraction). Conditions: 5 months, stressed conditions of 40° C. and 75% RH. From the text: The crystal form (detected from X-Ray powder diffraction data) of Risedronate active ingredient in the tablet are shown in the following table.
Series [3] in a line: Stability of form B against transformation to form A at 40° C. / 75% RH. On the procedure: X-ray diffraction analysis can be used to detect and quantify one crystalline form of risedronate sodium in another.
as §1

Series [4] is described as follows: Physical stability of crystal forms at high relative humidity (one week storage). To be noted: 80%-100% RH at room temperature for at least one week; 'not substantially' = not more than about 20%.
Where [5] appears, read: relative humidity 80%, one week storage, listed as D (MS-273), monosodium salt.

Regarding `O=P([O-])(O)C(O)(Cc1cccnc1)P(=O)(O)O.[Na+]` [Form A, 1-hydroxy-2(3-pyridinyl)ethylidene bis phosphonic acid monosodium salt, reference compound], the “TGA Weight Loss (%)” value in series [1] (relative humidity 80%, one week storage, listed as A (LB-91), monosodium salt) stood at 13.6%.
As to `O=P([O-])(O)C(O)(Cc1cccnc1)P(=O)(O)O.[Na+]` [Form B, 1-hydroxy-2(3-pyridinyl)ethylidene bis phosphonic acid monosodium salt], the “Stability of form B in tablets” value in series [2] is given as “stable”. Moreover, the “Conversion to form A hemipentahydrate” value in series [1] (75% to 100% RH for one week or more, 'not substantially' = not more than about 20%) was “does not substantially convert”; in series [3] (storage at 40° C. and 75% RH for 6 months, 'not substantially' = not more than about 20%), “does not substantially convert”. Further, the “TGA Weight Loss (%)” value in series [1] (relative humidity 80%, one week storage, listed as B (LB-89), monosodium salt) stood at 6.5%. Besides, in series [3] (RH of 75% at 40° C. for at least three months), the “Part of form B that transforms to form A” value was “less than 20%”.
`O=P([O-])(O)C(O)(Cc1cccnc1)P(=O)(O)O.[Na+]` [Form C, 1-hydroxy-2(3-pyridinyl)ethylidene bis phosphonic acid monosodium salt]: the “TGA Weight Loss (%)” value in series [1] (relative humidity 80%, one week storage, listed as C (LB-87), monosodium salt) amounted to 16.0%. In addition, in series [1] (relative humidity 80%, one week storage, listed as form C, monosodium salt), the Resulting form result was “a mixture of form C and form H”. In addition, the “Conversion to form A” value in series [4] is recorded as “does not substantially convert”.
For `O=P([O-])(O)C(O)(Cc1cccnc1)P(=O)(O)O.[Na+]` [Form D, 1-hydroxy-2(3-pyridinyl)ethylidene bis phosphonic acid monosodium salt], the Resulting form result in series [1] (setting [5]) was “D > B”; in series [1] (relative humidity 80%, one week storage, listed as form D, monosodium salt) it was “a mixture of form D and form B”; in series [1] (relative humidity 80-100%, one week storage, monosodium salt), “form B”. Further, in series [1] (setting [5]), the “TGA Weight Loss (%)” value worked out at 1.1%.
Consider `O=P([O-])(O)C(O)(Cc1cccnc1)P(=O)(O)O.[Na+]` [Form E, 1-hydroxy-2(3-pyridinyl)ethylidene bis phosphonic acid monosodium salt], for which the “TGA Weight Loss (%)” value in series [1] (relative humidity 80%, one week storage, listed as E (MS-277), monosodium salt) was 14.0%. For the same compound, in series [1] (relative humidity 80%, one week storage, listed as form E, monosodium salt), the Resulting form result is “form A with a small quantity of form D”.
As for `O=P([O-])(O)C(O)(Cc1cccnc1)P(=O)(O)O.[Na+]` [Form F, 1-hydroxy-2(3-pyridinyl)ethylidene bis phosphonic acid monosodium salt], the “TGA Weight Loss (%)” value in series [1] (relative humidity 20-60%, one week storage) is listed as 4-6%; in series [1] (relative humidity 80-100%, one week storage), 11.3-12.3%. In addition, the Resulting form result in series [1] (relative humidity 80%, one week storage, listed as form F, monosodium salt) was “a mixture of form BB”; in series [1] (relative humidity 80-100%, one week storage, listed as F (LB-104 160 C. 8 hr), monosodium salt), “BB > A”; in series [1] (relative humidity 80-100%, one week storage, listed as form F, monosodium salt), “form BB”; in series [1] (relative humidity 100%, one week storage, listed as form F, monosodium salt) it was “form BB”. Also, the “Rearrangement to the hemipentahydrate form” value in series [1] (up to 100% relative humidity, one week storage) is reported as “does not substantially rearrange”.
`O=P([O-])(O)C(O)(Cc1cccnc1)P(=O)(O)O.[Na+]` [Form G, 1-hydroxy-2(3-pyridinyl)ethylidene bis phosphonic acid monosodium salt]: the “TGA Weight Loss (%)” value in series [1] (relative humidity 20-80%, one week storage) is given as 9.4-10.2%; in series [1] (relative humidity 100%, one week storage), 12.6%. Moreover, the Resulting form entry in series [1] (relative humidity 100%, one week storage, listed as G (MS-257 160 C. 8 hr), monosodium salt) was “G + A”; in series [1] (relative humidity 100%, one week storage, listed as form G, monosodium salt), “a mixture of form G and form A”.
